# According to PubChem BioAssay AID248 (DTP/NCI, 2004):
# Several values for one entry are separate records, joined by “and”; a condition that tells them apart may be missing. Equal entries are not always repeated. Inconclusive results and toxic doses are left out.
# Tested on: L1210 leukemia ip in BDF1 mice, survival T/C
# Assay: NCI In Vivo Anticancer Drug Screen. Data for tumor model L1210 Leukemia (intraperitoneal) in B6D2F1 (BDF1) mice
# Settings: endpoint: mean survival time, higher = longer survival
# Summary of the method: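 In this screen, tumor-bearing mice given compound are compared to those given vehicle, and their survival values are reported as a treated-to-control quotient.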
smiles,measurement,setting,value
CSc1ncnc2c1ncn2C1OC(CO)C(O)C1O (stereo unspecified),T/C,"dose: 0.5 mg/kg/injection, schedule: Q#A X Z (ip), vehicle: saline",120 % of control
same,T/C,"dose: 0.82 mg/kg/injection, schedule: Q07DX003 (ip), vehicle: saline",107 % of control
same,T/C,"dose: 1.0 mg/kg/injection, schedule: Q01DX Z (ip), vehicle: saline",113 % of control
same,T/C,"dose: 1.25 mg/kg/injection, schedule: Q06HX068 (ip), vehicle: saline",123 % of control
same,T/C,"dose: 2.0 mg/kg/injection, schedule: Q01DX010 (ip), vehicle: saline",109 % of control and 112 % of control
same,T/C,"dose: 2.0 mg/kg/injection, schedule: Q01DX Z (ip), vehicle: saline",123 % of control
same,T/C,"dose: 3.25 mg/kg/injection, schedule: Q07DX003 (ip), vehicle: saline",115 % of control
same,T/C,"dose: 4.0 mg/kg/injection, schedule: Q01DX006 (iv), vehicle: saline",109 % of control
same,T/C,"dose: 4.0 mg/kg/injection, schedule: Q01DX010 (ip), vehicle: saline",117 % of control
same,T/C,"dose: 4.0 mg/kg/injection, schedule: Q01DX Z (im), vehicle: saline",117 % of control
same,T/C,"dose: 4.0 mg/kg/injection, schedule: Q01DX Z (sc), vehicle: saline",102 % of control
same,T/C,"dose: 5.0 mg/kg/injection, schedule: Q01DX010 (ip), vehicle: saline",113 % of control and 122 % of control
same,T/C,"dose: 5.0 mg/kg/injection, schedule: Q01DX017 (ip), vehicle: saline",105 % of control
same,T/C,"dose: 5.0 mg/kg/injection, schedule: Q#A X034 (ip), vehicle: saline",118 % of control
same,T/C,"dose: 6.5 mg/kg/injection, schedule: Q07DX003 (ip), vehicle: saline",115 % of control and 121 % of control
same,T/C,"dose: 6.65 mg/kg/injection, schedule: Q#A X Z (ip), vehicle: saline",151 % of control
same,T/C,"dose: 8.0 mg/kg/injection, schedule: Q01DX006 (iv), vehicle: saline",105 % of control
same,T/C,"dose: 8.0 mg/kg/injection, schedule: Q01DX010 (ip), vehicle: saline",118 % of control and 124 % of control
same,T/C,"dose: 8.0 mg/kg/injection, schedule: Q01DX Z (im), vehicle: saline",115 % of control
same,T/C,"dose: 8.0 mg/kg/injection, schedule: Q01DX Z (sc), vehicle: saline",113 % of control
same,T/C,"dose: 10.0 mg/kg/injection, schedule: Q12HX010 (ip), vehicle: saline",119 % of control
same,T/C,"dose: 10.0 mg/kg/injection, schedule: Q## X032 (ip), vehicle: saline",119 % of control
same,T/C,"dose: 12.5 mg/kg/injection, schedule: Q01DX010 (ip), vehicle: saline",150 % of control
same,T/C,"dose: 13.0 mg/kg/injection, schedule: Q## X004 (ip), vehicle: saline",114 % of control
same,T/C,"dose: 15.0 mg/kg/injection, schedule: Q01DX010 (ip), vehicle: saline",152 % of control
same,T/C,"dose: 15.0 mg/kg/injection, schedule: Q01DX Z (oral), vehicle: saline",119 % of control
same,T/C,"dose: 16.0 mg/kg/injection, schedule: Q01DX006 (iv), vehicle: saline",112 % of control
same,T/C,"dose: 16.0 mg/kg/injection, schedule: Q01DX Z (sc), vehicle: saline",115 % of control
same,T/C,"dose: 18.0 mg/kg/injection, schedule: Q01DX001 (ip), vehicle: saline",104 % of control and 106 % of control
same,T/C,"dose: 20.0 mg/kg/injection, schedule: Q01DX015 (ip), vehicle: saline",153 % of control
same,T/C,"dose: 20.0 mg/kg/injection, schedule: Q12HX006 (ip), vehicle: saline",110 % of control
same,T/C,"dose: 20.0 mg/kg/injection, schedule: Q12HX010 (ip), vehicle: saline",120 % of control
same,T/C,"dose: 20.0 mg/kg/injection, schedule: Q## X004 (ip), vehicle: saline",121 % of control
same,T/C,"dose: 20.0 mg/kg/injection, schedule: Q#A X034 (ip), vehicle: saline",103 % of control
same,T/C,"dose: 21.0 mg/kg/injection, schedule: Q## X015 (ip), vehicle: saline",152 % of control
same,T/C,"dose: 22.0 mg/kg/injection, schedule: Q## X032 (ip), vehicle: saline",124 % of control
same,T/C,"dose: 23.0 mg/kg/injection, schedule: Q03DX006 (ip), vehicle: saline",113 % of control
same,T/C,"dose: 25.0 mg/kg/injection, schedule: Q01DX001 (ip), vehicle: saline",122 % of control and 124 % of control
same,T/C,"dose: 25.0 mg/kg/injection, schedule: Q01DX005 (ip), vehicle: saline",150 % of control
same,T/C,"dose: 26.0 mg/kg/injection, schedule: Q01DX001 (ip), vehicle: saline",103 % of control
same,T/C,"dose: 27.0 mg/kg/injection, schedule: Q01DX001 (ip), vehicle: saline",110 % of control and 120 % of control
same,T/C,"dose: 30.0 mg/kg/injection, schedule: Q01DX003 (ip), vehicle: saline",151 % of control
same,T/C,"dose: 30.0 mg/kg/injection, schedule: Q01DX015 (ip), vehicle: saline",153 % of control
same,T/C,"dose: 30.0 mg/kg/injection, schedule: Q## X004 (ip), vehicle: saline",121 % of control
same,T/C,"dose: 31.0 mg/kg/injection, schedule: Q## X015 (ip), vehicle: saline",152 % of control
same,T/C,"dose: 32.0 mg/kg/injection, schedule: Q01DX006 (iv), vehicle: saline",115 % of control and 117 % of control
same,T/C,"dose: 32.0 mg/kg/injection, schedule: Q01DX Z (im), vehicle: saline",153 % of control
same,T/C,"dose: 32.0 mg/kg/injection, schedule: Q01DX Z (ip), vehicle: saline",102 % of control
same,T/C,"dose: 32.0 mg/kg/injection, schedule: Q01DX Z (sc), vehicle: saline",151 % of control
same,T/C,"dose: 32.0 mg/kg/injection, schedule: Q## X015 (ip), vehicle: saline",103 % of control and 115 % of control
same,T/C,"dose: 32.0 mg/kg/injection, schedule: Q## X032 (ip), vehicle: saline",122 % of control
same,T/C,"dose: 38.0 mg/kg/injection, schedule: Q01DX015 (ip), vehicle: saline",100 % of control
same,T/C,"dose: 39.5 mg/kg/injection, schedule: Q01DX015 (ip), vehicle: saline",123 % of control
same,T/C,"dose: 39.5 mg/kg/injection, schedule: Q## X015 (ip), vehicle: saline",123 % of control
same,T/C,"dose: 40.0 mg/kg/injection, schedule: Q01DX001 (ip), vehicle: saline",107 % of control and 110 % of control and 112 % of control
same,T/C,"dose: 40.0 mg/kg/injection, schedule: Q01DX017 (ip), vehicle: saline",108 % of control
same,T/C,"dose: 40.0 mg/kg/injection, schedule: Q12HX006 (ip), vehicle: saline",120 % of control
same,T/C,"dose: 45.0 mg/kg/injection, schedule: Q01DX015 (ip), vehicle: saline",102 % of control and 110 % of control
same,T/C,"dose: 45.0 mg/kg/injection, schedule: Q03DX006 (ip), vehicle: saline",120 % of control
same,T/C,"dose: 47.0 mg/kg/injection, schedule: Q## X015 (ip), vehicle: saline",98 % of control and 103 % of control
same,T/C,"dose: 50.0 mg/kg/injection, schedule: Q01DX001 (ip), vehicle: saline",113 % of control and 122 % of control
same,T/C,"dose: 50.0 mg/kg/injection, schedule: Q01DX009 (ip), vehicle: saline",102 % of control
same,T/C,"dose: 54.0 mg/kg/injection, schedule: Q01DX001 (ip), vehicle: saline",120 % of control
same,T/C,"dose: 60.0 mg/kg/injection, schedule: Q01DX001 (ip), vehicle: saline",115 % of control
same,T/C,"dose: 60.0 mg/kg/injection, schedule: Q01DX Z (oral), vehicle: saline",119 % of control
same,T/C,"dose: 61.0 mg/kg/injection, schedule: Q01DX001 (ip), vehicle: saline",116 % of control
same,T/C,"dose: 64.0 mg/kg/injection, schedule: Q01DX Z (im), vehicle: saline",109 % of control
same,T/C,"dose: 64.0 mg/kg/injection, schedule: Q01DX Z (sc), vehicle: saline",102 % of control
same,T/C,"dose: 80.0 mg/kg/injection, schedule: Q12HX010 (ip), vehicle: saline",115 % of control
same,T/C,"dose: 90.0 mg/kg/injection, schedule: Q01DX001 (ip), vehicle: saline",121 % of control
same,T/C,"dose: 90.0 mg/kg/injection, schedule: Q03DX006 (ip), vehicle: saline",119 % of control
same,T/C,"dose: 91.0 mg/kg/injection, schedule: Q01DX001 (ip), vehicle: saline",113 % of control
same,T/C,"dose: 100.0 mg/kg/injection, schedule: Q01DX001 (ip), vehicle: saline",111 % of control
same,T/C,"dose: 100.0 mg/kg/injection, schedule: Q01DX003 (ip), vehicle: saline",117 % of control
same,T/C,"dose: 100.0 mg/kg/injection, schedule: Q02DX008 (ip), vehicle: saline",95 % of control
same,T/C,"dose: 105.0 mg/kg/injection, schedule: Q07DX003 (ip), vehicle: saline",151 % of control and 152 % of control
same,T/C,"dose: 121.0 mg/kg/injection, schedule: Q01DX001 (ip), vehicle: saline",119 % of control
same,T/C,"dose: 138.0 mg/kg/injection, schedule: Q01DX001 (ip), vehicle: saline",152 % of control
same,T/C,"dose: 160.0 mg/kg/injection, schedule: Q12HX006 (ip), vehicle: saline",113 % of control
same,T/C,"dose: 180.0 mg/kg/injection, schedule: Q03DX006 (ip), vehicle: saline",105 % of control
same,T/C,"dose: 200.0 mg/kg/injection, schedule: Q01DX001 (ip), vehicle: saline",103 % of control
same,T/C,"dose: 256.0 mg/kg/injection, schedule: Q01DX006 (iv), vehicle: saline",94 % of control
same,T/C,"dose: 400.0 mg/kg/injection, schedule: Q01DX001 (ip), vehicle: saline",100 % of control
CCOC(=O)c1cnc(C(Cl)(Cl)Cl)[nH]c1=O,T/C,"dose: 100.0 mg/kg/injection, schedule: Q01DX001 (ip), vehicle: Klucel (hydroxypropylcellulose) (HPC)",94 % of control
same,T/C,"dose: 200.0 mg/kg/injection, schedule: Q01DX001 (ip), vehicle: Klucel (hydroxypropylcellulose) (HPC)",99 % of control
same,T/C,"dose: 400.0 mg/kg/injection, schedule: Q01DX001 (ip), vehicle: Klucel (hydroxypropylcellulose) (HPC)",92 % of control
